Patent US12384770B2, “Heterocyclic compound” (Takeda Pharmaceutical Company Limited, priority 2019, dated 2025)
“Also recorded” adds a separate entry of the source.

Columns and labels:
HDAC6 enzyme = target: T1, HDAC6 enzyme (Homo sapiens, UniProt Q9UBN7); assay: HDAC6 enzyme inhibitory assay (HDAC-Glo I/II Assay kit); assay type: biochemical; conditions: wells without enzyme = 100% inhibition; for inhibition at 10 µM: read-out: HDAC6 inhibitory rate (%) (10 μM)
T1 construct: HDAC6 enzyme prepared by transducing full length HDAC6 gene into Sf-9 insect cells; GST; purchased SignalChem; host or cells: Sf-9 insect cells
T1 sequence (Q9UBN7 1-1215): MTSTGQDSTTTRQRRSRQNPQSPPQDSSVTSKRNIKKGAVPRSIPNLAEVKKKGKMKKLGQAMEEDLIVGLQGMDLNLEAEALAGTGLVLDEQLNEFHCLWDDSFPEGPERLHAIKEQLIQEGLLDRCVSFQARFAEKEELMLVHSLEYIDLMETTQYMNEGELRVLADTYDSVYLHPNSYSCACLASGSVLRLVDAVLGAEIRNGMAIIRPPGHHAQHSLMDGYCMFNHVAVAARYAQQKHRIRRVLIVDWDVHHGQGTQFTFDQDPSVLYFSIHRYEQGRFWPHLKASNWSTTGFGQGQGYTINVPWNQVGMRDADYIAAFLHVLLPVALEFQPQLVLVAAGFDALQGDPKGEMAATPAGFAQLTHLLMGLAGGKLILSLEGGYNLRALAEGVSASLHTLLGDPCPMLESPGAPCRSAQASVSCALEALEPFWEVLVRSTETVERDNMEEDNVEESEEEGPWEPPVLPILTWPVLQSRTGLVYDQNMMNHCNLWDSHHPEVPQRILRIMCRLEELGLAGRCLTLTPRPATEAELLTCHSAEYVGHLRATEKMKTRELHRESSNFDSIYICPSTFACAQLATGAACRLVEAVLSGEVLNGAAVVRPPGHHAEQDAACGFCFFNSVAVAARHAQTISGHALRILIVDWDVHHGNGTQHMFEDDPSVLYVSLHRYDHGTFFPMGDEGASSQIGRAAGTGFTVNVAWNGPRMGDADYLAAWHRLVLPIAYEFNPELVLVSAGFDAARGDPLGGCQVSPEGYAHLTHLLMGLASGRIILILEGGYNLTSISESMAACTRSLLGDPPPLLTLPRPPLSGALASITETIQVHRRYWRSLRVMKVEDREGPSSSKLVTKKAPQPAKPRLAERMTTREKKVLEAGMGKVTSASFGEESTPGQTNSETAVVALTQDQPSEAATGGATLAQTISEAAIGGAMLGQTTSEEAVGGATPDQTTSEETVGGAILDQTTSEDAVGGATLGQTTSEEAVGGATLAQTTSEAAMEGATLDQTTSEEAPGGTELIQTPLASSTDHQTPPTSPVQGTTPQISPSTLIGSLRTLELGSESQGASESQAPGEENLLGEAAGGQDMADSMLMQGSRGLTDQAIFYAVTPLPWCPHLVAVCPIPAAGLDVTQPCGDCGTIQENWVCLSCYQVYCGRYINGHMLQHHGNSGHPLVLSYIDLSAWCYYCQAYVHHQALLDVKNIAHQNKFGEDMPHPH
How it was run: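 Full-length GST-purified HDAC6 from Sf-9 cells preincubated with compound 60 min at room temperature in Tris-HCl pH 7.5 buffer with MgCl2, KCl, NaCl, glutathione, Tween-20. Substrate-developer reaction 20 min, luminescence read; no-enzyme wells set as 100% inhibition.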

[1] = tested on: acetylated tubulin in mouse brain; assay: Increase in acetylated tubulin in brain (hippocampus, ELISA); assay type: in vivo; conditions: male C57BL/6J mouse, oral, 4 h after administration
Source text: A drug was suspended in 0.5% methyl cellulose to prepare a suspension for administration, having a concentration shown in Table 3. The suspension was orally administered into 8 to 10-week old male C57BL/6J mouse, and after the passage of the time shown in Table 3, the brain was taken out, and hippocampus was obtained. The hippocampus was homogenized under RIPA extract (FUJIFILM Wako Pure Chemical Corporation) to which protease inhibitor (Thermo Fisher Scientific) and phosphatase inhibitor (Thermo Fisher Scientific) were added, and centrifuged in 15,000 g for 15 min to prepare a protein extract. The acetylated tubulin and total tubulin in the extract were detected by the following ELISA method. Tubulin antibody (Sigma) was immobilized on 96-well plate (Microlite2+, Thermo Fisher Scientific), and the plate was stored at 4° C. Next day, the plate was washed four times with PBS-T, and blocking buffer (1% BSA/PBS-T) was added thereto, and the reaction was carried out at 37° C. for 2 hr. The plate was washed four times with PBS-T, and the above-mentioned protein extract was added thereto to capture the tubulin on the antibody. The plate was stored at 37° C. for 2 hr, and washed four times with PBS-T. Anti-acetylated tubulin antibody or total tubulin antibody (Cell Signaling Technology), each diluted with blocking buffer, was added thereto, and the reaction was carried out at 37° C. for 1 hr. […] The plate was washed, HRP substrate was added thereto, and the luminescence was measured using a plate reader. The acetylated tubulin and total tubulin were quantified from logistics curve based on dilution series using the mouse hippocampus tissue extract, and the amount of the acetylated tubulin relative to the total tubulin was calculated, and evaluated as an relative tubulin acetylation level. […] After F test for vehicle group and drug group, the significant difference between the two groups was analyzed by Student t-test or Welch test (indicated as *p<0.05, **p<0.01, n.s.: not significant). […]

[2] = tested on: P301S mutant human tau (4R1N) Tg mouse; assay: Cognitive improvement action in neurodegenerative disease model mouse (novel object recognition test); assay type: in vivo; conditions: once a day for three months
Experimental: A drug was suspended in 0.5% methyl cellulose to prepare a suspension for administration. The suspension was repeatedly administered into six month-old male P301S mutant human tau (4R1N) Tg mouse once a day for three months, and novel object recognition test was performed by the following method. The test is comprised of memory acquisition trial of object on the first day, and memory retention trial of familiar object and novel object on the second day. Drug was administered into the mouse 1 hr before the trials on both days. For acquisition trial, The mouse was put in a test box (30 cm×30 cm×25 cm) in which two identical objects were placed, and contact frequency and contact duration with the objects for 5 min were measured under 50 lux. Herein, the contact means a behavior getting a sniff of an object (Sniffing). Next day, one of the objects was replaced with new object, and contact frequency and contact duration with each object for 5 min were measured. Novelty discrimination index (NDI) as an index of cognitive function was calculated by novel object […]/(novel object contact duration+familiar object contact duration) %. […] After F test for vehicle administration wild-type group and vehicle administration Tg group, the significant difference between the two groups was analyzed by Student t-test or Welch test (indicated as **p<0.01). […]

Compound | inhibition at 10 µM (HDAC6 enzyme) | also measured
O=C1c2cc(-c3nnc(C(F)F)o3)ccc2CN1[C@H](c1ccccn1)[C@@H](O)c1ccccn1 [Example 1, 6-[5-(difluoromethyl)-1,3,4-oxadiazol-2-yl]-2-[(1R,2R)-2-hydroxy-1,2-di(pyridin-2-yl)ethyl]-2,3-dihydro-1H-isoindol-1-one] | 101% | relative tubulin acetylation level (acetylated tubulin relative to total tubulin) [1]: increase in significant tubulin acetylation level; also recorded: increase in acetylated tubulin; cognitive improvement action (novelty discrimination, relative exploration time) [2]: cognitive improvement action
O=C1c2cc(-c3nnc(C(F)F)o3)ccc2CN1[C@H](c1ccc(F)cn1)[C@@H](O)c1ccc(F)cn1 [Example 5, 2-[(1R,2R)-1,2-bis(5-fluoropyridin-2-yl)-2-hydroxyethyl]-6-[5-(difluoromethyl)-1,3,4-oxadiazol-2-yl]-2,3-dihydro-1H-isoindol-1-one] |  | HDAC6 inhibitory rate (%) (10 μM) (HDAC6 enzyme): 99%; relative tubulin acetylation level (acetylated tubulin relative to total tubulin) [1]: increase in significant tubulin acetylation level; also recorded: increase in acetylated tubulin
O=C1c2cc(-c3nnc(C(F)F)o3)ccc2CN1[C@H](C1CC1)[C@@H](O)c1cccc(Cl)n1 (single isomer, unassigned) [Example 130, 2-[(1R*,2R*)-2-(6-chloropyridin-2-yl)-1-cyclopropyl-2-hydroxyethyl]-6-[5-(difluoromethyl)-1,3,4-oxadiazol-2-yl]-2,3-dihydro-1H-isoindol-1-one] |  | HDAC6 inhibitory rate (%) (10 μM) (HDAC6 enzyme): 98%
O=C1c2cc(-c3nnc(C(F)F)o3)ccc2CN1[C@H](c1cccc(F)n1)[C@@H](O)c1cccc(F)c1 (single isomer, unassigned) [Example 89, 6-[5-(difluoromethyl)-1,3,4-oxadiazol-2-yl]-2-[(1R*,2S*)-2-(3-fluorophenyl)-1-(6-fluoropyridin-2-yl)-2-hydroxyethyl]-2,3-dihydro-1H-isoindol-1-one] | 100% | 
O=C1c2cc(-c3nnc(C(F)F)o3)ccc2CN1[C@H](c1ccccn1)[C@@H](O)c1ccc(F)cn1 [Example 3, 6-[5-(difluoromethyl)-1,3,4-oxadiazol-2-yl]-2-[(1R,2R)-2-(5-fluoropyridin-2-yl)-2-hydroxy-1-(pyridin-2-yl)ethyl]-2,3-dihydro-1H-isoindol-1-one] | 101% | relative tubulin acetylation level (acetylated tubulin relative to total tubulin) [1]: increase in significant tubulin acetylation level; also recorded: increase in acetylated tubulin; cognitive improvement action (novelty discrimination, relative exploration time) [2]: cognitive improvement action
O=C1c2cc(-c3nnc(C(F)F)o3)ccc2CN1[C@H](c1ccc(F)cc1)[C@H](O)C1CC1 (racemic) [Example 140, 2-[(1RS,2RS)-2-cyclopropyl-1-(4-fluorophenyl)-2-hydroxyethyl]-6-[5-(difluoromethyl)-1,3,4-oxadiazol-2-yl]-2,3-dihydro-1H-isoindol-1-one] | 98% | 
O=C1c2cc(-c3nnc(C(F)F)o3)ccc2CN1[C@H](c1ccccn1)[C@@H](O)c1cc(Cl)ccn1 (single isomer, unassigned) [Example 124, 2-[(1R*,2R*)-2-(4-chloropyridin-2-yl)-2-hydroxy-1-(pyridin-2-yl)ethyl]-6-[5-(difluoromethyl)-1,3,4-oxadiazol-2-yl]-2,3-dihydro-1H-isoindol-1-one] |  | HDAC6 inhibitory rate (%) (10 μM) (HDAC6 enzyme): 100%
O=C1c2cc(-c3nnc(C(F)F)o3)ccc2CN1[C@H](c1cccnn1)[C@@H](O)c1ccc(Cl)cc1 (relative stereo) [Example 110, 2-[(1R*,2S)-2-(4-chlorophenyl)-2-hydroxy-1-(pyridazin-3-yl)ethyl]-6-[5-(difluoromethyl)-1,3,4-oxadiazol-2-yl]-2,3-dihydro-1H-isoindol-1-one] | 100% | 
O=C1c2cc(-c3nnc(C(F)F)o3)ccc2CN1[C@H](c1ccccn1)[C@H](O)c1ccc(F)cc1 (racemic) [Example 141, 6-[5-(difluoromethyl)-1,3,4-oxadiazol-2-yl]-2-[(1RS,2RS)-2-(4-fluorophenyl)-2-hydroxy-1-(pyridin-2-yl)ethyl]-2,3-dihydro-1H-isoindol-1-one] | 99% | 

The next lines start with results.

inhibition at 10 µM (HDAC6 enzyme) | Compound | also measured
99% | O=C1c2cc(-c3nnc(C(F)F)o3)ccc2CN1[C@@H](c1ccccn1)[C@@H](O)c1cccc(F)c1 (racemic) [Example 145, 6-[5-(difluoromethyl)-1,3,4-oxadiazol-2-yl]-2-[(1SR,2SR)-2-(3-fluorophenyl)-2-hydroxy-1-(pyridin-2-yl)ethyl]-2,3-dihydro-1H-isoindol-1-one] | 
100% | O=C1c2cc(-c3nnc(C(F)F)o3)ccc2CN1[C@H](c1cnccn1)[C@@H](O)c1cccc(Cl)c1 (single isomer, unassigned) [Example 91, 2-[(1R*,2S*)-2-(3-chlorophenyl)-2-hydroxy-1-(pyrazin-2-yl)ethyl]-6-[5-(difluoromethyl)-1,3,4-oxadiazol-2-yl]-2,3-dihydro-1H-isoindol-1-one] | 
99% | O=C1c2cc(-c3nnc(C(F)F)o3)ccc2CN1[C@H](c1cnccn1)[C@@H](O)c1ccccc1 (single isomer, unassigned) [Example 127, 6-[5-(difluoromethyl)-1,3,4-oxadiazol-2-yl]-2-[(1R*,2S*)-2-hydroxy-2-phenyl-1-(pyrazin-2-yl)ethyl]-2,3-dihydro-1H-isoindol-1-one] | 
102% | O=C1c2cc(-c3nnc(C(F)F)o3)ccc2CN1[C@H](c1ccccn1)[C@@H](O)c1cccc(F)n1 [Example 7, 6-[5-(difluoromethyl)-1,3,4-oxadiazol-2-yl]-2-[(1R,2R)-2-(6-fluoropyridin-2-yl)-2-hydroxy-1-(pyridin-2-yl)ethyl]-2,3-dihydro-1H-isoindol-1-one] | 
